From patent US20020137929A1, “1 - (3-heterocyclylphenyl) isothiourea, -isourea, -guanidine and -amidine herbicidal agents” (Intellectual Property Department, BASF Aktiengesellschaft, priority 1998, published 2002)

Key:
CASOB (Sicklepod) = test: Preemergence herbicidal evaluation; assay type: in vivo, Cassia obtusifolia; conditions: rated 4-5 weeks after treatment
Summary of the method: (§1)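 Test compound, dissolved in aqueous acetone, was sprayed over planted soil cups at an equivalent of about 0.0156 to 0.500 kg/ha; seeds had been mixed with potting soil. Greenhouse growth followed, with visual 0-9 scoring of injury at four to five weeks.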

SETVI (Foxtail, Green) = test: Postemergence herbicidal evaluation; assay type: in vivo, Setaria viridis
Summary of the method: (§2)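 Visual 0–9 rating versus control (stand, vigor, malformation, size, chlorosis, overall appearance), taken four to five weeks post-spray. Two-week-old seedlings received roughly 0.0156–0.500 kg/ha active in acetone/water (50/50) with 0.5% TWEEN 20 via nozzle at 40 psi.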

[1] = system: IPOHE (Morningglory, Ivyleaf); test: Postemergence herbicidal evaluation; assay type: in vivo, Ipomoea hederacea
Summary of the method: as §2

[2] = system: CHEAL (Lambsquarters, Common); test: Preemergence herbicidal evaluation; assay type: in vivo, Chenopodium album; conditions: rated 4-5 weeks after treatment
Summary of the method: as §1

ECHCG (Barnyardgrass) [3] = test: Postemergence herbicidal evaluation; assay type: in vivo, Echinochloa crus-galli
Summary of the method: as §2

[4] = system: GLXMAW (Soybean, Williams); test: Postemergence herbicidal evaluation; assay type: in vivo, Glycine max, (L.) Merr. cv Williams
Summary of the method: as §2

[5] = system: TRZAWR (Wheat, Winter, cv Riband); test: Postemergence herbicidal evaluation; assay type: in vivo, Triticum aestivum
Summary of the method: as §2

[6] = system: ECHORC (Watergrass (Calif.)); test: Postemergence weed control under flooded paddy conditions; assay type: in vivo, Echinochloa oryzoides; conditions: postemergence weeds, 3-4 weeks after treatment
Summary of the method: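 Herbicidal effect is judged by eye on a 0–9 scale versus control, 3–4 weeks after dosing. Dosing is into flood water kept 1.5–3 cm over the soil, at about 0.0313–0.500 kg/ha in aqueous/acetone 50/50 v/v, on 3–5 cm weeds and 1.5–2.5-leaf rice seedlings.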

ABUTH (Velvetleaf) = test: Postemergence herbicidal evaluation; assay type: in vivo, Abutilon theophrasti
Summary of the method: as §2

GALAP (Galium) = test: Preemergence herbicidal evaluation; assay type: in vivo, Galium aparine; conditions: rated 4-5 weeks after treatment
Summary of the method: as §1

[7] = system: IPOHE (Morningglory, Ivyleaf); test: Preemergence herbicidal evaluation; assay type: in vivo, Ipomoea hederacea; conditions: rated 4-5 weeks after treatment
Summary of the method: as §1

ZEAMX (Corn, Field) = test: Preemergence herbicidal evaluation; assay type: in vivo, Zea mays; conditions: rated 4-5 weeks after treatment
Summary of the method: as §1

ECHCG (Barnyardgrass) [8] = test: Preemergence herbicidal evaluation; assay type: in vivo, Echinochloa crus-galli; conditions: rated 4-5 weeks after treatment
Summary of the method: as §1

AMBEL (Ragweed, Common) = test: Postemergence herbicidal evaluation; assay type: in vivo, Ambrosia artemisifolia
Summary of the method: as §2

CCOC(=O)CN1C(=O)C(Cc2ccccc2OC)SC1=Nc1cc(-n2c(=O)cc(C(F)(F)F)n(C)c2=O)c(F)cc1Cl (stereo not shown) [Compound 37, Ethyl 2-{{2-chloro-5-[3,6-dihydro-3-methyl-2,6-dioxo-4-(trifluoromethyl)-1(2H)-pyrimidinyl]-4-fluorophenyl}imino}-5-(o-methoxybenzyl)-4-oxo-3-thiazolidineacetate]
4.0: Herbicidal rating ECHORC ([6]; rate 0.0313 kg/ha)
3.0: Postemergence herbicidal rating AMBEL (AMBEL (Ragweed, Common); Rate 0.0158 kg/ha)
6.0: Herbicidal rating ECHORC ([6]; rate 0.0625 kg/ha)
7.0: Herbicidal rating ECHORC ([6]; rate 0.1250 kg/ha) | Herbicidal rating ECHORC ([6]; rate 0.2500 kg/ha)
2.0: Postemergence herbicidal rating TRZAWR ([5]; Rate 0.0158 kg/ha) | Postemergence herbicidal rating TRZAWR ([5]; Rate 0.0315 kg/ha) | Postemergence herbicidal rating TRZAWR ([5]; Rate 0.0630 kg/ha)
0.0: Preemergence herbicidal rating CASOB (CASOB (Sicklepod); rate 0.1250 kg/ha) | Preemergence herbicidal rating CASOB (CASOB (Sicklepod); rate 0.2500 kg/ha) | Postemergence herbicidal rating SETVI (SETVI (Foxtail, Green); Rate 0.0158 kg/ha) | Postemergence herbicidal rating SETVI (SETVI (Foxtail, Green); Rate 0.0315 kg/ha) | Postemergence herbicidal rating SETVI (SETVI (Foxtail, Green); Rate 0.0630 kg/ha) | Postemergence herbicidal rating ECHCG (ECHCG (Barnyardgrass) [3]; Rate 0.0158 kg/ha) | Postemergence herbicidal rating ECHCG (ECHCG (Barnyardgrass) [3]; Rate 0.0315 kg/ha) | Postemergence herbicidal rating ECHCG (ECHCG (Barnyardgrass) [3]; Rate 0.0630 kg/ha) | Preemergence herbicidal rating GALAP (GALAP (Galium); rate 0.1250 kg/ha) | Preemergence herbicidal rating IPOHE ([7]; rate 0.1250 kg/ha) | Preemergence herbicidal rating IPOHE ([7]; rate 0.2500 kg/ha) | Preemergence herbicidal rating ZEAMX (ZEAMX (Corn, Field); rate 0.1250 kg/ha) | Preemergence herbicidal rating ZEAMX (ZEAMX (Corn, Field); rate 0.2500 kg/ha) | Preemergence herbicidal rating ECHCG (ECHCG (Barnyardgrass) [8]; rate 0.1250 kg/ha) | Preemergence herbicidal rating ECHCG (ECHCG (Barnyardgrass) [8]; rate 0.2500 kg/ha)
9.0: Postemergence herbicidal rating IPOHE ([1]; Rate 0.0158 kg/ha) | Postemergence herbicidal rating IPOHE ([1]; Rate 0.0315 kg/ha) | Postemergence herbicidal rating IPOHE ([1]; Rate 0.0630 kg/ha) | Preemergence herbicidal rating CHEAL ([2]; rate 0.1250 kg/ha) | Preemergence herbicidal rating CHEAL ([2]; rate 0.2500 kg/ha) | Postemergence herbicidal rating ABUTH (ABUTH (Velvetleaf); Rate 0.0158 kg/ha) | Postemergence herbicidal rating ABUTH (ABUTH (Velvetleaf); Rate 0.0315 kg/ha) | Postemergence herbicidal rating ABUTH (ABUTH (Velvetleaf); Rate 0.0630 kg/ha) | Preemergence herbicidal rating GALAP (GALAP (Galium); rate 0.2500 kg/ha) | Postemergence herbicidal rating AMBEL (AMBEL (Ragweed, Common); Rate 0.0315 kg/ha) | Postemergence herbicidal rating AMBEL (AMBEL (Ragweed, Common); Rate 0.0630 kg/ha)
5.0: Postemergence herbicidal rating GLXMAW ([4]; Rate 0.0315 kg/ha) | Postemergence herbicidal rating GLXMAW ([4]; Rate 0.0630 kg/ha)
4.5: Postemergence herbicidal rating GLXMAW ([4]; Rate 0.0158 kg/ha)

Cn1c(C(F)(F)F)cc(=O)n(-c2cc(N=C3NC(=O)CS3)c(Cl)cc2F)c1=O [Compound 39, 3-{4-Chloro-2-fluoro-5-[(4-oxo-2-thiazolidinylidene)amino]phenyl}-1-methyl-6-(trifluoromethyl)-2,4(1H,3H)-pyrimidinedione]
2.0: Preemergence herbicidal rating CASOB (CASOB (Sicklepod); rate 0.1250 kg/ha) | Postemergence herbicidal rating IPOHE ([1]; Rate 0.0158 kg/ha) | Postemergence herbicidal rating TRZAWR ([5]; Rate 0.0158 kg/ha) | Herbicidal rating ECHORC ([6]; rate 0.1250 kg/ha) | Preemergence herbicidal rating ZEAMX (ZEAMX (Corn, Field); rate 0.1250 kg/ha)
7.0: Postemergence herbicidal rating IPOHE ([1]; Rate 0.0315 kg/ha) | Postemergence herbicidal rating IPOHE ([1]; Rate 0.0630 kg/ha) | Preemergence herbicidal rating CHEAL ([2]; rate 0.0625 kg/ha) | Preemergence herbicidal rating CHEAL ([2]; rate 0.1250 kg/ha) | Postemergence herbicidal rating AMBEL (AMBEL (Ragweed, Common); Rate 0.0630 kg/ha)
1.0: Preemergence herbicidal rating CASOB (CASOB (Sicklepod); rate 0.2500 kg/ha) | Preemergence herbicidal rating CHEAL ([2]; rate 0.0156 kg/ha) | Preemergence herbicidal rating IPOHE ([7]; rate 0.0625 kg/ha) | Preemergence herbicidal rating IPOHE ([7]; rate 0.1250 kg/ha)
9.0: Preemergence herbicidal rating CHEAL ([2]; rate 0.2500 kg/ha) | Postemergence herbicidal rating ABUTH (ABUTH (Velvetleaf); Rate 0.0315 kg/ha) | Postemergence herbicidal rating ABUTH (ABUTH (Velvetleaf); Rate 0.0630 kg/ha) | Preemergence herbicidal rating GALAP (GALAP (Galium); rate 0.2500 kg/ha) | Preemergence herbicidal rating IPOHE ([7]; rate 0.2500 kg/ha)
0.0: Preemergence herbicidal rating CASOB (CASOB (Sicklepod); rate 0.0313 kg/ha) | Preemergence herbicidal rating CASOB (CASOB (Sicklepod); rate 0.0625 kg/ha) | Postemergence herbicidal rating SETVI (SETVI (Foxtail, Green); Rate 0.0158 kg/ha) | Postemergence herbicidal rating SETVI (SETVI (Foxtail, Green); Rate 0.0315 kg/ha) | Postemergence herbicidal rating SETVI (SETVI (Foxtail, Green); Rate 0.0630 kg/ha) | Preemergence herbicidal rating CHEAL ([2]; rate 0.0313 kg/ha) | Postemergence herbicidal rating ECHCG (ECHCG (Barnyardgrass) [3]; Rate 0.0158 kg/ha) | Postemergence herbicidal rating ECHCG (ECHCG (Barnyardgrass) [3]; Rate 0.0315 kg/ha) | Postemergence herbicidal rating ECHCG (ECHCG (Barnyardgrass) [3]; Rate 0.0630 kg/ha) | Herbicidal rating ECHORC ([6]; rate 0.0313 kg/ha) | Herbicidal rating ECHORC ([6]; rate 0.0625 kg/ha) | Postemergence herbicidal rating ABUTH (ABUTH (Velvetleaf); Rate 0.0158 kg/ha) | Preemergence herbicidal rating GALAP (GALAP (Galium); rate 0.0156 kg/ha) | Preemergence herbicidal rating GALAP (GALAP (Galium); rate 0.0313 kg/ha) | Preemergence herbicidal rating GALAP (GALAP (Galium); rate 0.0625 kg/ha) | Preemergence herbicidal rating IPOHE ([7]; rate 0.0156 kg/ha) | Preemergence herbicidal rating IPOHE ([7]; rate 0.0313 kg/ha) | Preemergence herbicidal rating ZEAMX (ZEAMX (Corn, Field); rate 0.0156 kg/ha) | Preemergence herbicidal rating ZEAMX (ZEAMX (Corn, Field); rate 0.0313 kg/ha) | Preemergence herbicidal rating ZEAMX (ZEAMX (Corn, Field); rate 0.0625 kg/ha) | Preemergence herbicidal rating ECHCG (ECHCG (Barnyardgrass) [8]; rate 0.0156 kg/ha) | Preemergence herbicidal rating ECHCG (ECHCG (Barnyardgrass) [8]; rate 0.0313 kg/ha) | Preemergence herbicidal rating ECHCG (ECHCG (Barnyardgrass) [8]; rate 0.0625 kg/ha) | Preemergence herbicidal rating ECHCG (ECHCG (Barnyardgrass) [8]; rate 0.1250 kg/ha) | Preemergence herbicidal rating ECHCG (ECHCG (Barnyardgrass) [8]; rate 0.2500 kg/ha) | Postemergence herbicidal rating AMBEL (AMBEL (Ragweed, Common); Rate 0.0158 kg/ha)
6.0: Preemergence herbicidal rating GALAP (GALAP (Galium); rate 0.1250 kg/ha)
4.5: Postemergence herbicidal rating GLXMAW ([4]; Rate 0.0158 kg/ha)
5.0: Postemergence herbicidal rating GLXMAW ([4]; Rate 0.0315 kg/ha) | Postemergence herbicidal rating GLXMAW ([4]; Rate 0.0630 kg/ha) | Preemergence herbicidal rating ZEAMX (ZEAMX (Corn, Field); rate 0.2500 kg/ha)
3.0: Herbicidal rating ECHORC ([6]; rate 0.2500 kg/ha) | Postemergence herbicidal rating AMBEL (AMBEL (Ragweed, Common); Rate 0.0315 kg/ha)
2.5: Postemergence herbicidal rating TRZAWR ([5]; Rate 0.0630 kg/ha)
1.5: Postemergence herbicidal rating TRZAWR ([5]; Rate 0.0315 kg/ha)
